Experiments:
p38δ = target: T1, p38δ (Homo sapiens, UniProt O15264); experiment: Cellular assay of target protein degradation (MDA-MB-231 cells, ELISA); assay type: cell-based; settings: for DC50: read-out: p38δDC50/nM [MDA-MB-231]
T1 construct: endogenous in cells; host or cells: MDA-MB-231 (intact cells for degradation; cleared cell lysate for CETSA)
T1 sequence (O15264 1-365): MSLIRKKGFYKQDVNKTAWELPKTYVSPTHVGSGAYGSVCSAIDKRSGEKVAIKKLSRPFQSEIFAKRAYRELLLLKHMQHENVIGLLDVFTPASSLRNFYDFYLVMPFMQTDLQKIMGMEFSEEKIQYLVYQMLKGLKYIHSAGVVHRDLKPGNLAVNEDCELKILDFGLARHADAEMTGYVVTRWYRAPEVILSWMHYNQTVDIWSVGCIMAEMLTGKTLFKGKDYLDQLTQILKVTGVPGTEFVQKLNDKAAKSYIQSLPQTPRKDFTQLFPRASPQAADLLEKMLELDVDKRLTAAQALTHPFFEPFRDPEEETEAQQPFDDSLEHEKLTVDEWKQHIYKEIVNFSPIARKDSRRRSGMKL
Experimental: (§1) Protocol of the cellular assay of target protein degradation (MDA-MB-231 cells, ELISA).
(§2) For detection Cell Signaling PathScan Sandwich ELISA Catalog#12850 was used. MDA-MB-231 cells and […] were cultured in ATCC DMEM+ATCC FBS and plated 40,000/well 100 μl/well in RPMI P/S with 5% CSS Omega (bovine) serum into a 96 well plate. The cells were grown for a minimum of 3 days, dosed with compounds in 0.1% DMSO (diluted with 5% CSS) and incubated with aspiration for 4 hours. 100 μl of 1× Cell Signaling lysis buffer #9803 (36 mL dH2O+4 mL Cell Signaling lysis buffer) was added. The incubation was placed on cold room shaker for 10 minutes at speed 8-9.5 μl to 100 μL of Diluent was transferred to ELISA plate (0.15 μg/mL-0.075 μg/mL) and stored at 4° C. overnight on cold room shaker speed 5 (gentle swirl) and then shaken next morning at 37° C. for 30 minutes. The preparation was washed 4×200 μl with ELISA wash buffer and aspirated with eight-channel aspirator. 100 μl/well of target protein detection antibody was added after, which the preparation was covered and shaken at 37° C. for 1 hour. 100 μl TMB was added, and the mixture was shaken for 5 min while under observation. When TMB turned light blue, 100 μl of Stop solution was added, and the mixture was shaken and read at 450 nm. Also read at 562 nm for background subtraction.

p38α = target: T2, p38α (Homo sapiens, UniProt Q16539); experiment: as above; assay type: cell-based
T2 construct: selectively degrades p38α, whereas exemplary PROTAC 46 (10-atom linker, phenyl attachment) selectively degrades p38δ in MDA-MB-231 cells; endogenous in cells; host or cells: MDA-MB-231
T2 sequence (Q16539 whole entry): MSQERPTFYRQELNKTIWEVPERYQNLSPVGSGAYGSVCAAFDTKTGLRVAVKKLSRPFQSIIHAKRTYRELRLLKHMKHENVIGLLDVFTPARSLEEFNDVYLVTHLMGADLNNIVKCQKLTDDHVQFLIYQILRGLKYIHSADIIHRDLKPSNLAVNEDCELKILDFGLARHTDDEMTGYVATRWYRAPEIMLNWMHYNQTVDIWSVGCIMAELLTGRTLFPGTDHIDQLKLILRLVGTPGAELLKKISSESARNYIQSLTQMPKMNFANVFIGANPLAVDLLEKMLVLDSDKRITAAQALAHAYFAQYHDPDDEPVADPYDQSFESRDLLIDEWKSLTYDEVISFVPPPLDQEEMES
Experimental: as §1, §2

[1] = target: T3, p38δ:PROTAC:VHL ternary complex (Homo sapiens, UniProt O15264+P40337); experiment: In vitro ternary complex pull-down with GST-VBC bait, purified p38δ; assay type: binding
T3 construct: encoding a region spanning amino acids 1-365 was PCR-amplified; His6 (N); made in house; host or cells: E. coli (BL21-CodonPlus(DE3)-RIPL for p38δ; BL21(DE3) for GST-VBC)
T3 sequence (P40337 whole entry, one chain of several, the tested form may be a part): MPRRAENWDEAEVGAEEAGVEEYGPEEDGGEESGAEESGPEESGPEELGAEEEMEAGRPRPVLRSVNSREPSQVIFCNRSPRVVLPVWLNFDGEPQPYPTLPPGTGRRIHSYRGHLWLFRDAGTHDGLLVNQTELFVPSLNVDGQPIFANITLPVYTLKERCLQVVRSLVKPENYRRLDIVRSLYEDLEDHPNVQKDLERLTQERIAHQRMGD
T3 sequence (Q15370 whole entry partner, one chain of several, the tested form may be a part): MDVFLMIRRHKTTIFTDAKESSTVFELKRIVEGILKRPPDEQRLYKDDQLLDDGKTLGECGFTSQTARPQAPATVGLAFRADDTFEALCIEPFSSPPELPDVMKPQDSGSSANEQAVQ
T3 sequence (Q15369 whole entry partner, one chain of several, the tested form may be a part): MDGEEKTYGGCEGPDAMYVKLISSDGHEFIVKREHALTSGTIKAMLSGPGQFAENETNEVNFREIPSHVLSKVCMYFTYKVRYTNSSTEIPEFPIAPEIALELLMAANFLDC
Source text: FIGS. 15A, 15B, and 15C. Differential p38δ:PROTAC:VHL ternary complex affinities result in distinct cellular ubiquitination outcomes. (A) Both exemplary compound 50 and 46 pull-down p38δ in vitro, however compound 46 maintains ternary complex at lower concentrations. As in FIG. 14A, GST-tagged VBC was used as a bait to trap recombinant p38δ in the presence of vehicle (DMSO) or the indicated concentrations of compound 50 or 46. The rightmost lane represents a 1:25 dilution of initial input protein used in each pull-down. […] GST-VBC was immobilized on glutathione sepharose beads and incubated with MDA-MB-231 whole cell lysate (WCL) in the presence of vehicle (DMSO) or the indicated concentrations of compound 50 or 46. Beads were washed and “trapped” proteins (i.e. those that engage in a ternary complex) were eluted with SDS sample buffer and separated by SDS-PAGE. Samples were assessed by western blot and CUL2 and α-tubulin serve as positive and negative GST-VBC immunoprecipitation controls, respectively. (C) Only exemplary compound 46 ubiquitinates FLAG-p38δ in HeLa cells. As in FIG. 14C, HeLa cells were co-transfected with HA-Ub and FLAG-p38δ and were either treated with vehicle (DMSO) or 1 μM of compound 50 or 1 μM of compound 46 for 2 hours. FLAGimmunoprecipitated lysates were separated by SDS-PAGE and assessed via western blots detecting HA (Ub). […]

| SMILES | Dmax (p38δ) [%] | DC50 (p38δ) [nM] | DC50 (p38α) [nM] | Dmax (p38α) [%] | pull-down of purified p38δ on GST-VBC-coated beads [1] |
| --- | --- | --- | --- | --- | --- |
| COc1cc2c(Oc3ccc(NC(=O)C4(C(=O)Nc5ccc(F)cc5)CC4)cc3F)ccnc2cc1OCCOCCOCCOc1cc(-c2scnc2C)ccc1CNC(=O)[C@@H]1C[C@@H](O)CN1C(=O)[C@H](C(C)C)N1Cc2ccccc2C1=O [compound 46] | 93 | 84.9 | > 5000 | 33 | slightly greater ternary complex pull-down efficiency |
| COc1cc2c(Oc3ccc(NC(=O)C4(C(=O)Nc5ccc(F)cc5)CC4)cc3F)ccnc2cc1OCCCCOCCCCOCC(=O)N[C@H](C(=O)N1C[C@H](O)C[C@H]1C(=O)NCc1ccc(-c2scnc2C)cc1)C(C)(C)C [compound 50, N-(3-fluoro-4-((7-(4-(4-(2-(((S)-1-((2S,4R)-4-hydroxy-2-((4-(4-methylthiazol-5-yl)benzyl)carbamoyl)pyrrolidin-1-yl)-3,3-dimethyl-1-oxobutan-2-yl)amino)-2-oxoethoxy)butoxy)buto-xy)-6-methoxyquinolin-4-yl)oxy)phenyl)-N-(4-fluorophenyl)cyclopropane-1,1-dicarboxa-mide] | 18 | > 5000 | 9.5 | 99 | able to pull-down purified p38δ on GST-VBC-coated beads in a dose-dependent manner |

Source: patent US20180353501A1 (Arvinas, Inc., priority 2017, published 2018)
